Here are results for two compounds from patent US8084494B2, “Substituted aminophenylsulfonamide compounds as HIV protease inhibitor” (priority 2005, dated 2011).

Common to all, as to assay: microbe, parasite or virus in culture
What all share (assay type): cell-based

Assay [1] concerns clinically isolated HIV strain A-2-001. The conditions noted are these: Human immunodeficiency virus 1, 72 h, read-out: EC50, Virus Strains A-2-001. How it is done: (§1) The compounds were tested in a cellular assay using the MT4-LTR-EGFP cells for anti-viral activity. […] Because of the increasing emergence of drug resistant HIV strains, the present compounds were tested for their potency against clinically isolated HIV strains harboring several mutations. […] The viral strains A, B, C and D contain mutations as indicated below in Table 2.
(§2) The cellular assay was performed according to the following procedure. HIV- or mock-infected MT4-LTR-EGFP cells were incubated for three days in the presence of various concentrations of the compounds according to the invention. Upon infection, the viral tat protein activates the GFP reporter. At the end of the incubation period, the GFP signal was measured. […] The inhibitory activity of the compound was monitored on the virus-infected cells and was expressed as EC50. These values represent the amount of the compound required to protect 50% of the cells from virus infection.

For assay [2], the system named is clinically isolated HIV strain B-2-001. As to conditions: Human immunodeficiency virus 1, 72 h, read-out: EC50, Virus Strains B-2-001. How it is done:
as §1, §2

Assay [3] has as its system clinically isolated HIV strain C-2-001. The conditions noted are these: Human immunodeficiency virus 1, 72 h, read-out: EC50, Virus Strains C-2-001. As to the method:
as §1, §2

Assay [4] concerns clinically isolated HIV strain D-2-001. As to conditions: Human immunodeficiency virus 1, 72 h, read-out: EC50, Virus Strains D-2-001. As to the method:
as §1, §2

Assay [5] has as its system wild type laboratory HIV strain (WT IIIB-2-001). As to conditions: Human immunodeficiency virus 1, IIIB, 72 h, read-out: EC50, Virus Strains WT IIIB-2-001. How it is done:
as §1, §2

As a reminder, the EC50 is the concentration giving half of the maximal effect. In the case of `CC(C)CN(C[C@@H](O)[C@H](Cc1ccccc1)NC(=O)O[C@H]1CO[C@H]2OCC[C@H]21)S(=O)(=O)c1ccc(N)c(NCc2ccccn2)c1` [Compound 80, [3-({4-amino-3-[(pyridin-2-ylmethyl)-amino]-benzenesulfonyl}-isobutyl-amino)-1-benzyl-2-hydroxy-propyl]-carbamic acid hexahydro-furo[2,3-b]furan-3-yl ester], the EC50 in assay [1] was 1.48 nM; in assay [2] it was 93.3 nM; in assay [3] it was 14.5 nM; in assay [4], 38.9 nM; in assay [5], 8.91 nM.

Consider `CC(C)CN(CC(O)C(Cc1ccccc1)NC(=O)OC1COC2OCCC12)S(=O)(=O)c1ccc(N)c(NCc2ccc(F)cc2F)c1` (stereo not shown) [Compound 78, (3-{[4-amino-3-(2,4-difluoro-benzylamino)-benzenesulfonyl]-isobutyl-amino}-1-benzyl-2-hydroxy-propyl)-carbamic acid hexahydro-furo[2,3-b]furan-3-yl ester], for which the 50% effective concentration (EC50) in assay [1] was 0.617 nM; in assay [2], 135 nM; in assay [3], 10 nM; in assay [4], 35.5 nM; in assay [5] it was 3.63 nM.
